Columns and labels:
[1] = biological target: T1, Beta-secretase 1 (Homo sapiens, UniProt P56817); assay: Inhibition of BACE1 assessed as amyloid beta (1-40) production
[2] = biological target: T1, Beta-secretase 1
[3] = system: Mus musculus; assay: Reduction in amyloid beta in mouse plasma at 50 mg/kg, po; format: ADME, organism-based; set-up: dose 50 mg/kg, route oral; scale not given: the % may be the effect or the level left; details: in vivo
[4] = system: Mus musculus; assay: Reduction in amyloid beta in mouse plasma at 25 mg/kg, po; format: ADME, organism-based; set-up: dose 25 mg/kg, route oral; scale not given: the % may be the effect or the level left; details: in vivo
[5] = system: Mus musculus; assay: Reduction in amyloid beta in mouse plasma at 10 mg/kg, po; format: ADME, organism-based; set-up: dose 10 mg/kg, route oral; scale not given: the % may be the effect or the level left; details: in vivo

T1 sequence (P56817 whole entry): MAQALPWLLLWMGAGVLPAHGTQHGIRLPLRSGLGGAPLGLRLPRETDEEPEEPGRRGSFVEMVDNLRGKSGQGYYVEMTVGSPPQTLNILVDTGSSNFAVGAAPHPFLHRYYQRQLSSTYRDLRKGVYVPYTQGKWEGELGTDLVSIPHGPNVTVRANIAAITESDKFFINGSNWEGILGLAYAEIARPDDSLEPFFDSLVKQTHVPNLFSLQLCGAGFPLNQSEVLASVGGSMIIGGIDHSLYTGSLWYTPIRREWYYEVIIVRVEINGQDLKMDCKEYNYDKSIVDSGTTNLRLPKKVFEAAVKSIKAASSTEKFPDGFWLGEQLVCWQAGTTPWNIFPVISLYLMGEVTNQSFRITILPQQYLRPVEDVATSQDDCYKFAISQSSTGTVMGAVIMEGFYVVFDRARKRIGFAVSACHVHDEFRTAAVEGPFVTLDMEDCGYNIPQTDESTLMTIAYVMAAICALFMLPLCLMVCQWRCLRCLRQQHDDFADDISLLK

Row | SMILES | IC50 [1] [nM] | Ki [2] [nM] | Activity [3] [%] | Activity [4] [%] | Activity [5] [%]
1 | NC1=Nc2cc(F)c3cc2CN1[C@H](C1CCCCC1)CCC(=O)N(C1CCCCC1)CCc1cccc(c1)O3 | 30 | 8 |  |  | 
2 | NC1=Nc2cnc3cc2CN1[C@H](C1CCCCC1)CCC(=O)N(C1CCCCC1)CCc1cccc(c1)O3 | 7 | 5 |  |  | 
3 | CC(C)[C@@H]1CCC(=O)N(C2CCOCC2)CCc2cccc(c2)Oc2ccc3c(c2)CN1C(N)=N3 | 685 |  |  |  | 
4 | NC1=Nc2ccc3cc2CN1[C@H](C1CCCCC1)CCC(=O)N(C1CCCCC1)CCc1cccc(c1)O3 |  |  | 23 | 22 | 13

Reference: ChEMBL document CHEMBL1157115, “Macrocyclic BACE inhibitors: Optimization of a micromolar hit to nanomolar leads” (Bioorg Med Chem Lett, 2010)
